{
  "source": "patent US20230172958A1",
  "about": "“USE OF COMPOUNDS FOR TREATING VIRAL INFECTIONS” (priority 2020, published 2023)",
  "test_system": "V-ATPase",
  "test": "V-ATPase ELISA (Human V-Type Proton ATPase ELISA kit) on treated MDAMB231 cells",
  "type": "cell-based",
  "settings": "100 nM (0.1 μM)/10,000 cells, 48 hours",
  "procedure": "An ELISA test was performed using Human V-Type Proton ATPase ELISA kit (My BioSource Catlog no: MBS911862) to determine the V-ATPase inhibitory effect of the compounds of the present invention.\nProcedure: 1.0 million cells of MDAMB231 (cell line rich in V-ATPase) were plated on 60 mm plates for 24 hours at 37° C. and 5% CO2. The cells were treated with the test compounds (Formula A to U) at a concentration of 100 nM (0.1 μM)/10,000 cells and incubated for 48 hours. After incubation the supernatant was discarded, the cells were washed with D.P.B.S. (Dulbecco's phosphate-buffered saline), scraped and stored at −80° C. for 48 hours. The cells were thawed, vortexed, homogenized for 7 minutes, followed by centrifugation for 3 minutes at 3000 R.P.M. The supernatant was taken for V-ATPase Assay.\nStandards and samples were pipetted into the wells. Antibody specific for V-ATPase was pre-coated onto a microplate. Any V-ATPase present in the standard /sample would get bound by the immobilized antibody. After the incubation period any unbound substances were removed by washing and a biotin-conjugated antibody specific for V-ATPase was added to the wells and plates were re-incubated at 37° C. and 5% CO2. After washing, avidin conjugated Horseradish Peroxidase (HRP) was added to the wells. Following a wash to remove any unbound avidin-enzyme reagent, a substrate solution was added to the wells and colour developed was in proportion to the amount of V-ATPase bound in the initial step. The colour development was stopped, and the optical density was measured at 450 nm spectrophotometrically. The concentration of V-ATPase was then calculated by substituting the optical density in the regression equation obtained from the standards. Percent (%) reduction in V-ATPase was calculated by subtracting the amount of V-ATPase obtained from the untreated/conc. of V-ATPase in untreated X100.",
  "data": [
    {"smiles": "COC1COC(Oc2ccc(-c3ccc4c(c3)OCO4)c3ccccc23)C(O)C1OC", "note": "(stereo not shown) [Compound of Formula E, 2-(1-(benzo[d][1,3]dioxol-5-yl)naphthalen-4-yloxy)-tetrahydro-4,5-dimethoxy-2H-pyran-3-ol]", "values": [
      {"measurement": "reduction of V-ATPase (%)", "result": 15.6, "unit": "%"}
    ]}
  ]
}
